Test results taken from US20210260008A1, “COMBINATION THERAPY FOR TREATING CANCER” (THE JOHNS HOPKINS UNIVERSITY, priority 2018, published 2021).
Read-outs that look alike come from different tables or passages of the source.

How the values were obtained:
[1] = tested on: immune cells in tumor associated ascites (tumor microenvironment); test: Flow cytometry of immune cell populations in tumor associated ascites of VDID8 mice; assay type: in vivo, mouse; conditions: for Percentage of M1 macrophages (MHCII+ CD206−) / total numbers of lymphocytes in ascites: week 5; for T cell, NK cell, and IFNγ+ lymphocyte populations: week 5 post tumor injection; for MHC II positive (MHCII Hi, M1-like) macrophages: compared to vehicle; for total numbers of lymphocytes in ascites: compared to vehicle / single agents
Description: Ascites tissue harvest and processing. When ascites fluid is collected from the mice, the cells obtained represent the tumor microenvironment and can be further analyzed to help illustrate the mixed population of cells surrounding the tumor. Ascites was collected, filtered, incubated in ACK buffer (Quality Biological) to lyse red blood cells, and washed. The mononuclear cells collected were then cultured for four hours in RPMI (Corning) with 10% FBS in the presence of phorbol 12-myristate 13-acetate (PMA) and ionomycin to stimulate cells, and brefeldin A and monensin (Invitrogen 00-4975-93) to cause aggregation of secreted proteins inside the cell.
Flow cytometry. Cells were washed and blocked with FcR Blocking Reagent (Miltenyi Biotec 130-092-575) and stained for cell-surface markers including Live/Dead (eBioscience 65-0865-14), CD45 (BD Biosciences 563891), CD3 (BD Biosciences 560527), CD4 (BD Biosciences 563331), CD8 (BD Biosciences 563152), NK1.1 (BD Biosciences 562921), F4/80 (BioLegend 123113), CD11b (BioLegend 101222), MHC II (isotype control 400627; BioLegend 107619), CD206 (BioLegend 141708), CD11c (BD Biosciences 564079), Ly6C (BD Biosciences 562728), Ly6G (BD Biosciences 563005), CD80 (BD Biosciences 553769), and CD86 (BD Biosciences 558703). Cells were permeabilized and stained for intracellular IFNγ (isotype control 554686; BD Biosciences 554413). Flow cytometry acquisition was performed on an LSR II cytometer (BD Biosciences), and data were analyzed using FlowJo software version 10.2.
Flow sorting. Lysed and processed bulk ascites cells were blocked with FcR Blocking Reagent (Miltenyi Biotec 130-092-575) and stained for cell-surface markers including Live/Dead (eBioscience 65-0865-14), CD45 (BD Biosciences 563891), F4/80 (BioLegend 123113), CD11b (BioLegend 101222), MHC II (isotype control 400627; BioLegend 107619), CD206 (BioLegend 141708), and CD11c (BD Biosciences 564079). Prepared cells were suspended in PBS and sorted immediately on a BSL-2 FACSAria II. M1 macrophages were sorted on a gate as follows: CD45+ L/D− F4\80+ CD11b+ MHC II+ CD206− CD11c−. M2 macrophages were sorted on a gate as follows: CD45+ L/D− F4\80+ CD11b+ MHC II− CD206+ CD11c−.

VDID8 cells = test: HPLC analysis of polyamine levels in cultured, treated VDID8 cells; assay type: cell-based, mouse; conditions: in vitro; 500 nM AZA 10 days, 5 mM DFMO 3 days
Description: (§1) FIG. 6A-6B. DFMO treatment of VDID8 cells in vitro reduces putrescene and spermidine levels. FIG. 6A: VDID8 cells were cultured in 10% FBS RPMI+gentamicin for one week prior to beginning 10 day treatment. Cells were treated with 500 nM AZA/saline for 10 days and 5 mM DFMO/water for 3 days. AZA+DFMO cells were treated with 500 nM AZA for the first 7 days, and 500 nM AZA + 5 mM DFMO for the final 3 days of treatment. High-performance liquid chromatography (HPLC) analysis of polyamine levels in cultured, treated VDID8 cells are shown. n=3. FIG. 6B: Bulk ascites fluid was collected from individual mice treated with DFMO, AZA, or AZA+DFMO. Bulk ascites cells were lysed and washed and remaining cells were prepped for HPLC analysis of polyamine levels. n=4-10. All data were tested for a Gaussian distribution and found to be normal using Shapiro-Wilk test. Significance was determined using a one way ANOVA.
(§2) Polyamines. Polyamines were analyzed via high-performance liquid chromatography (HPLC) as previously described (36).

bulk ascites cells = test: HPLC analysis of polyamine levels in bulk ascites cells from treated mice; assay type: in vivo, mouse; conditions: bulk ascites cells from treated animals
Description: as §1, §2

[2] = cited from earlier work
2208L breast tumors = test: 2208L breast tumor mouse model
Description: Significance determined using log-rank Mantel-Cox test.
Tumor size as measured once weekly in mice bearing 2208L breast tumor xenografts (week 6 post tumor implant).
Mature or activated dendritic cells in the tumor microenvironment of the 2208L breast cancer model, shown as a percentage of dendritic cells.

[3] = tested on: VEGF-β-Defensin ID8 (VDID8) syngeneic mouse ovarian surface epithelial (MOSE) cells; test: VDID8 syngeneic ovarian cancer mouse model: tumor burden (ascites volume) and survival; conditions: for median survival / overall survival / tumor burden (ascites volume): VDID8 mice; for median survival / overall survival: AZA 0.5 mg/kg i.p., 2% DFMO in water; for tumor burden (ascites volume): treated vs vehicle; for tumor burden (ascites volume) compared with combination therapy: second ascites drain, week 5 post tumor injection
Description: Mice were injected i.p. with 250,000 VEGF-DEFB ID8 MOSE cells (VDID8). 0.5 mg/kg of AZA was given i.p. 5 days a week, every other week. 2% DFMO was provided in water bottles. Mice were treated throughout the duration of the experiment. Upon 25-30% weight gain, ascites fluid was drained from mice and processed for analysis of the tumor microenvironment. FIG. 1B: Tumor burden, represented by ascites volume, 5 weeks post tumor injection. Data is from the second ascites drain procedure, the first was 4 weeks post tumor injection. Representative data (mean +/−SEM shown). n=10; four biological replicates. Data were tested for a Gaussian distribution using Shapiro-Wilk test and found not to be normal. Significance was determined using Kruskal Wallis test; statistical outliers removed using Peirce's criterion. FIG. 1C: Representative survival curve (median survival in days); n=10; four biological replicates. Significance determined using log-rank Mantel-Cox test.
Animals. Female C57BL/6NHsd wild-type (WT) mice (7-8 wk old) were purchased from Envigo International Holdings, Inc. (Indianapolis, Ind.). Mice were housed at the Johns Hopkins Kimmel Cancer Center Animal Resources Core and cared for in accordance with the policies of The Johns Hopkins University Animal Care and Use Committee and our approved animal protocol.
Syngeneic mouse model. 250,000 VEGF-β-Defensin ID8 (VDID8) syngeneic mouse ovarian surface epithelial (MOSE) cells were injected intraperitoneally into wild-type (WT) C57BL/6 mice.
Mice were treated with 0.5 mg/kg AZA/saline, Monday through Friday, every other week and continuous 2% DFMO in drinking water.
Mice were treated IP with AZA (0.5 mg/kg) or saline vehicle, DFMO (2% in water), or combination AZA and DFMO beginning three days post tumor injection (FIG. 1A).

[4] = tested on: LPS-stimulated macrophages; conditions: LPS-stimulated macrophages in vitro (ref. 48); cited from earlier work

Row | Compound | total macrophage populations in the tumor microenvironment ([1]; ascites) | Percentage of M1 macrophages (MHCII+ CD206−) ([1]; ascites) | T cell, NK cell, and IFNγ+ lymphocyte populations ([1]; ascites) | MHC II positive (MHCII Hi, M1-like) macrophages [1] | total numbers of lymphocytes in ascites [1] | putrescine and spermidine levels (VDID8 cells) | polyamine levels (putrescine, spermidine, spermine) (bulk ascites cells) | solubility ([2]; acetone, ethanol and methyl ketone) | solubility ([2]; dimethylsulfoxide (DMSO)) | solubility ([2]; ethanol/water (50/50), propylene glycol and polyethylene glycol) | solubility ([2]; water, water-saturated octanol, 5% dextrose in water, N-methyl-2-pyrrolidone, normal saline and 5% Tween 80 in water) | mature or activated dendritic cells as a percentage of dendritic cells (2208L breast tumors; tumor microenvironment of 2208L model) | tumor burden / tumor size (2208L breast tumors; weeks 3 through 6 post tumor implant surgery) | median survival [3] | overall survival [3] | tumor burden (ascites volume) [3] | tumor burden (ascites volume) compared with combination therapy [3] | NO production [4] | tumor volume (2208L breast tumors; measured once weekly, week 6 post tumor implant)
1 | Nc1ncn([C@@H]2O[C@H](CO)[C@@H](O)[C@H]2O)c(=O)n1 [AZA, 4-amino-1-β-D-ribofuranozyl-s-triazin-2(1H)-one] | consistently decreased | increased | significant increases | increased | significantly increased | stimulatory effect | No significant changes | insoluble | soluble | slightly soluble | sparingly soluble | increases activation | no impact on tumor size | approximately 44 days | significantly increased survival | decreased tumor burden | higher tumor burden |  | 
2 | NCCCC(N)(C(=O)O)C(F)F (centres unmarked) [DFMO, 2-(difluoromethyl)-2,5-diaminopentanoic acid] |  | increased | significant increases | increased | significantly increased | significant decrease | decreased (although not significantly) |  |  |  |  |  |  | approximately 44 days | significantly increased survival | decreased tumor burden | higher tumor burden | potentiate NO production | maintains low tumor volumes
